Results from publication PMC6529709 (Heliyon, 2019).

Target: urease (from jack bean) (Canavalia ensiformis, UniProt P07374)
Test: indophenol
Assay type: biochemical

Sequence of urease (from jack bean) (P07374 whole entry, looked up): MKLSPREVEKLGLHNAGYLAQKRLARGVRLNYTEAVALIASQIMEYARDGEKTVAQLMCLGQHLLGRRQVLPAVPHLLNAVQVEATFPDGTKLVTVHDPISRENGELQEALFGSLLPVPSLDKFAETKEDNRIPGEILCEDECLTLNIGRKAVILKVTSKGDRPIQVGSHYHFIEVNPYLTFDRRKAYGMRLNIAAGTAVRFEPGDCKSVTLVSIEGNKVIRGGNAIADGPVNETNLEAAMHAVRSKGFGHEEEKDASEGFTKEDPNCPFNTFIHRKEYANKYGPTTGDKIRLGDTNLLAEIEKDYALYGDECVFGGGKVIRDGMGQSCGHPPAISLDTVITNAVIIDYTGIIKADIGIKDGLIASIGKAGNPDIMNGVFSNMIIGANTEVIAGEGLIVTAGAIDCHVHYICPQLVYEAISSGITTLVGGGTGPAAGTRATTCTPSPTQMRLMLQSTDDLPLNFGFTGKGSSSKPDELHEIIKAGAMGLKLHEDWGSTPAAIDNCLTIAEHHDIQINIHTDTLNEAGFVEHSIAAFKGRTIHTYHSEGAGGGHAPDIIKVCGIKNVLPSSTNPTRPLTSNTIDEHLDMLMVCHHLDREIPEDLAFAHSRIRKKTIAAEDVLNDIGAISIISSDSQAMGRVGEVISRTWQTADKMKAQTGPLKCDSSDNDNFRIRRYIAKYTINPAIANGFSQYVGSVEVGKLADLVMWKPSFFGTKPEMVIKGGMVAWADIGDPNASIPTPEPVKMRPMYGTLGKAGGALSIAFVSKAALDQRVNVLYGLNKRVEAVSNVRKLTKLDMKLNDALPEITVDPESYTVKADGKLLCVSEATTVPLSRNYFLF

Structure (SMILES)	IC50
NC(N)=S [Thiourea, reference compound]	65.3 µM
COc1ccc(/C=N/N=C/c2ccc(OC)cc2)cc1 [ASB1]	38.4 µM
COc1ccc(/C=N/c2cc(Cl)cc(Cl)c2)cc1 [ASB2]	184 µM
